Results as given in patent publication US20100267712A1, “ISOINDOLINE COMPOUNDS FOR THE TREATMENT OF SPINAL MUSCULAR ATROPHY AND OTHER USES” (The United States of America, as represented by the …, priority 2007, published 2010).
pEC50: −log10 of the molar value.

Key:
[1] = system: SMN2-linked luciferase-reporter gene construct; assay: SMN Splice Reporter Assay (SMN2-linked luciferase reporter); assay type: cell-based; conditions: for pEC50: cervical carcinoma cell lines, SMN2 splice luciferase reporter; for Fold Increase: fold-increase of luciferase over baseline reading of transformed cells without any test compound
Outline: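 Cervical carcinoma cells carrying an SMN2-luciferase splicing reporter, in-frame only with exon 7 inclusion, were treated with compound. Luciferase activity reported as fold increase over untreated transformed cells, with EC50 derived.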

[2] = system: SMN-containing gems in type 1 SMA patient fibroblasts (3813 cells); assay: SMN-containing gem count in SMA patient fibroblasts; assay type: cell-based, human; conditions: 48 hours, 3813 fibroblasts
Excerpt: SMN protein can be found in punctate nuclear particles called “gems” (Liu and Dreyfuss, EMBO J, 15 (14): 3555-3565 (1996)). In fibroblast cells derived from SMA patients, the number of gems corresponds to disease severity as follows: severe type 1 patients have approximately 5 gems per 100 nuclei; mild type 3 patients have 20-50 gems per 100 nuclei; normal individuals have approximately 100-150 gems per 100 nuclei (Coovert et al., Hum Mol Genet, 6 (8): 1205-1214 (1997), Young et al., Exp Cell Res, 265 (2): 252-261 (2001)).
Gems are detectable by immunohistochemistry and gem counts in patient fibroblasts have been used to test the ability of compounds to increase SMN protein levels (Mattis et al., Hum Genet, 120: 589-601 (2006)). Following these methods, fibroblast cells from a type 1 SMA patient (3813 cells, Coriell Cell Repositories) were treated for 48 hours with a compound of the invention. The cells were then fixed and incubated with a monoclonal antibody against SMN (4B7, Wolstencroft et al., Hum Mol Genet, 14: 1199-1210 (2005)). A FITC-conjugated anti-mouse secondary antibody was used to visualize the labeled gems. A positive control in these experiments was provided by fibroblasts from the same patient treated with 1000 μM valproic acid.

SMN protein [3] = assay: Western blot of total cellular SMN protein in SMA type I fibroblasts; assay type: cell-based, human; conditions: 48 hours, 3813 cells
Protocol: Western blots were performed using standard methods. SMA type I fibroblasts (3813 cells; Coriell Cell Repositories) were treated with compounds for 48 hours. Monoclonal SMN anti-SMN antibody 4B7 (Wolstencroft et al., Hum Mil Genet, 14:1199-1210 (2005)) was used to identify SMN protein. Tubulin was used as an internal normalization standard. DMSO treatment serves as the negative control.

[4] = system: translational stop codon read-through, human SMN2 open reading frame-luciferase; assay: Translational read-through luciferase reporter assay (luciferase preceded by the open reading frame of the human SMN2 gene); assay type: cell-based
Excerpt: This assay was similar in design to that described in WO 01/44516 A2. This was a cell-based luciferase reporter assay designed to detect translational read-through via insertion of a translational stop codon within the coding sequence that includes luciferase. In the presence of compounds that promote read-through of translational stop codons, active luciferase was produced and detected via chemiluminescence. Compounds of the invention typically were active in three versions of this assay: luciferase reporter containing a UGA stop codon, luciferase reporter containing a UAG stop codon, which is the first stop codon downstream of the improper splice junction between exons 6 and 8 in the human SMN2 transcript, and luciferase preceded by the open reading frame of the human SMN2 gene.

SMN protein [5] = conditions: cited from earlier work
SMA model mouse fetuses = conditions: administered in utero; cited from earlier work

Row | Compound | pEC50 [1] | Fold Increase [1] | pEC50 [4] | maximal fold induction [4] | Average number of gems per 100 nuclei ([2]; 1 μM compound) | also measured
1 | COc1ccc2c(c1)C(=O)N(c1ccc3ncsc3c1)C2 [Example 120596] | 6.90 | 1.591 | 5.76 | 2.23 | – | Average number of gems per 100 nuclei ([2]; 0.1 μM compound): 148; SMN:Tubulin ratio as % of Vehicle Control (SMN protein [3]; 1 μM): 124.41%
2 | COc1ccc2c(c1)C(=O)N(c1ccc3occc3c1)C2 [Example 119047] | 7.23 | 1.456 | 5.37 | 2.04 | – | Average number of gems per 100 nuclei ([2]; 0.1 μM compound): 32; SMN:Tubulin ratio as % of Vehicle Control (SMN protein [3]; 0.1 μM): 125.19%
3 | COc1ccc2c(c1)C(=O)N(c1ccc3cc[nH]c3c1)C2 [Example 119869] | 6.97 | 1.716 | – | – | 49 | –
4 | COc1ccc2c(c1)C(=O)N(c1ccc3ccsc3c1)C2 [Example 118739] | 6.99 | 1.617 | – | – | 76 | –
5 | CCC(C)c1ccc2c(c1)C(=O)N(c1ccc3c(ccn3C)c1)C2 (stereo not shown) [Example 122182] | 7.00 | 1.539 | – | – | 18 | –
6 | CN(C)c1ccc2c(c1)C(=O)N(c1ccc3c(ccn3C)c1)C2 [Example 124429] | 7.62 | 1.594 | – | – | 44 | –
7 | Cc1cc2cc(N3Cc4ccc(N(C)C)cc4C3=O)ccc2n1C [Example 123707] | 7.00 | 1.635 | 7.04 | 1.44 | – | Average number of gems per 100 nuclei ([2]; 0.1 μM compound): 53
8 | COc1ccc2c(c1)C(=O)N(c1ccc3c(c1)CCCN3C)C2 [Example 120121] | 7.70 | 1.702 | – | – | – | Average number of gems per 100 nuclei ([2]; 0.1 μM compound): 16
9 | COc1ccc2c(c1)C(=O)N(c1ccc3cn[nH]c3c1)C2 [Example 120602] | 6.81 | 1.412 | 5.96 | 2.12 | – | Average number of gems per 100 nuclei ([2]; 0.1 μM compound): 68; SMN:Tubulin ratio as % of Vehicle Control (SMN protein [3]; 1 μM): 123.67%
10 | CC(C)Oc1ccc2c(c1)C(=O)N(c1ccc3ccn(C)c3c1)C2 [Example 124326] | 6.77 | 1.666 | 6.89 | 0.946 | 98 | SMN:Tubulin ratio as % of Vehicle Control (SMN protein [3]; 3 μM): 147.687%
11 | COc1ccc2c(c1)C(=O)N(c1ccc3c(ccn3C)c1)C2 [Example 118417] | 7.35 | 1.485 | – | – | – | Average number of gems per 100 nuclei ([2]; 3 μM compound): 53
12 | COc1ccc2c(c1)C(=O)N(c1ccc3c(c1)cc(C)n3C)C2 [Example 120595] | 6.94 | 1.531 | – | – | 32 | –
13 | COc1ccc2c(c1)C(=O)N(c1ccc3c(c1)cc(C)n3C(C)C)C2 [Example 123714] | 5.58 | 1.863 | 5.72 | 1.18 | 84 | –
14 | COc1ccc2c(c1)C(=O)N(c1ccc3ncccc3c1)C2 [Example 120286] | 7.52 | 1.713 | – | – | – | Average number of gems per 100 nuclei ([2]; 0.1 μM compound): 132
15 | Cc1cc2cc(N3Cc4ccc(Cl)cc4C3=O)ccc2n1C [Example 123011] | 7.06 | 1.481 | 5.58 | 1.89 | 37 | –
16 | COc1ccc2c(c1)C(=O)N(c1ccc3cc(C)n(C)c3c1)C2 [Example 124597] | 6.46 | 1.358 | – | – | 42 | –
17 | CCCc1ccc2c(c1)C(=O)N(c1ccc3c(ccn3C)c1)C2 [Example 119522] | 7.17 | 1.557 | 5.74 | 1.73 | 6 | –
18 | CC(C(=O)O)c1ccc(N2Cc3ccccc3C2=O)cc1 (stereo not shown) [Indoprofen, indoprofen] | – | – | – | – | – | production of SMN from the endogenous SMN2 gene (SMN protein [5]; SMA patient fibroblasts): increase in production of SMN; level of expression of SMN protein (SMN protein [5]; cultured cells, Lunn et al. 2004): increases the level of expression of SMN protein; survival of SMA model mouse fetuses (SMA model mouse fetuses): increase survival; luciferase activity ([1]; result in words): increases luciferase activity
19 | Cn1ccc2cc(N3Cc4ccc(OC(F)F)cc4C3=O)ccc21 [Example 119537] | 6.95 | 1.604 | 5.87 | 2.12 | – | Average number of gems per 100 nuclei ([2]; 0.1 μM compound): 31
20 | O=C1c2cc(OC(F)F)ccc2CN1c1ccc2ncccc2c1 [Example 120790] | 6.85 | 1.926 | – | – | 27 | –
21 | Cn1ccc2ccc(N3Cc4ccc(N5CCCC5)cc4C3=O)cc21 [Example 124596] | 7.33 | 1.681 | – | – | 43 | –
22 | CN(C)c1ccc2c(c1)C(=O)N(c1ccc3ncccc3c1)C2 [Example 124032] | 8.05 | 1.659 | – | 1.02 | 65 | –
23 | Cn1ccc2cc(N3Cc4ccc(N5CCCC5)cc4C3=O)ccc21 [Example 122317] | 6.73 | 1.47 | – | – | 45 | –
24 | CN(C)c1ccc2c(c1)C(=O)N(c1ccc3ccn(C)c3c1)C2 [Example 124771] | 7.37 | 1.689 | 5.38 | 1.8 | 50 | –
25 | CCOc1ccc2c(c1)C(=O)N(c1ccc3c(ccn3C)c1)C2 [Example 121789] | 7.16 | 1.461 | 6.46 | 1.79 | 10 | –
26 | CC(=O)Nc1ccc2c(c1)C(=O)N(c1ccc3ccn(C)c3c1)C2 [Example 121505] | 6.69 | 1.817 | – | – | 47 | –
